In general, IC50 refers to the concentration that gives 50% inhibition.

Molecules are shown by their SMILES.

Drawing on patent US12448373B2, “Azetidinyl-acetamides as CXCR7 inhibitors” (CHEMOCENTRYX, INC., priority 2021, dated 2025), this text covers IC50 for 55 compounds.

T1 sequence (P25106 whole entry): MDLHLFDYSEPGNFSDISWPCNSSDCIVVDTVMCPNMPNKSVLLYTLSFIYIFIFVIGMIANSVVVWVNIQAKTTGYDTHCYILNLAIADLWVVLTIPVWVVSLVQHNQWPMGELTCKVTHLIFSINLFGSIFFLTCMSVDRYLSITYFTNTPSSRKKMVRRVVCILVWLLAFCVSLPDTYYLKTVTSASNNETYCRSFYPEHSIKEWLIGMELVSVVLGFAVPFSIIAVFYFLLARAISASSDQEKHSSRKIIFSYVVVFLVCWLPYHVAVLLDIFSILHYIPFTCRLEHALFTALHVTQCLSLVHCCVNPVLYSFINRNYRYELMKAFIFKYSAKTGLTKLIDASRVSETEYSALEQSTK

The assay has as its target T1, CXCR7 (Homo sapiens, UniProt P25106).
T1 construct: expressed in transfected cells; host or cells: CHO cells (CHO-CXCR7), transgenes maintained with Hygromycin B and G418
Kind of assay: CXCR7 β-arrestin recruitment assay in CHO-CXCR7 cells (ProLink/EA β-galactosidase complementation), induced by human SDF-1a. The assay is classed as cell-based. To be noted: assay buffer, SDF-1a at EC50 concentration. In short, it runs like this:
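SDF-1α-induced β-arrestin recruitment was measured by enzyme-fragment complementation (ProLink-CXCR7 with β-arrestin-EA) in stable CHO cells. Agonist was dosed at its EC50, determined the same day, alongside serially diluted compound for 1.5 h at 37 °C. Fluorogenic galactoside substrate (0.4 mM, 30 min) was read at 360/465 nm, with IC50 from 3-parameter nonlinear regression.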
On the technique in general: Arrestin recruitment assays detect the binding of arrestin to an activated receptor.
On to `CC(C)(NC(=O)CC1(NC(=O)c2cc(-c3ccc(F)cc3F)on2)CN([C@H]2CC[C@](C)(O)CC2)C1)c1ccnc(C#N)c1` [Example 1.162], for which the half-inhibitory concentration (IC50) is 5 to 100 nM.
With `CC(C)(NC(=O)CC1(NC(=O)c2cc(-c3ccc(F)cc3F)on2)CN([C@H]2CC[C@@](C)(O)CC2)C1)c1ccc(F)cn1` [Example 1.207] the figure was 100 to 1000 nM; with `CC(C)(NC(=O)CC1(NC(=O)c2cc(-c3ccc(F)cc3F)on2)CN([C@H]2CC[C@](C)(O)CC2)C1)c1cc(F)cc(Cl)c1` [Example 1.124], under 5 nM; with `Cc1nc(C(C)(C)NC(=O)CC2(NC(=O)c3cc(-c4ccc(F)cc4F)on3)CN(C3CCC4(CC3)COC4)C2)sc1C` [Example 1.245], 100 to 1000 nM.
With `CC(C)(NC(=O)CC1(NC(=O)c2cc(-c3ccc(F)cc3F)on2)CN(C2CCCCC2)C1)c1ccc(F)cc1F` [Example 1.263], the half-maximal inhibitory concentration (IC50) lay within 1000 to 20000 nM.
With `COc1cccc(C(C)(C)NC(=O)CC2(NC(=O)c3cc(-c4ccc(F)cc4F)on3)CN(CC(C)(C)O)C2)c1` [Example 1.179] the figure was 5 to 100 nM.
With `CC(C)(NC(=O)CC1(NC(=O)c2nnc(-c3ccc(F)cc3F)s2)CN([C@H]2CC[C@](C)(O)CC2)C1)c1cccc(F)c1` [Example 1.042] the figure was under 5 nM.
Regarding `Cc1cc(C)nc(C(C)(C)NC(=O)CC2(NC(=O)c3nnc(-c4ccc(F)cc4F)s3)CN([C@H]3CC[C@](C)(O)CC3)C2)n1` [Example 1.061], the IC50 was under 5 nM.
On to `CC(C)(NC(=O)CC1(NC(=O)c2cc(-c3ccc(F)cc3F)on2)CN([C@H]2CC[C@@](C)(O)CC2)C1)c1ccc(F)cc1F` [Example 1.288], for which the IC50 was in the range of 5 to 100 nM.
With `Cc1cc(C)nc(C(C)(C)NC(=O)CC2(NC(=O)c3nnc(-c4ccc(F)cc4F)s3)CN([C@H]3CC[C@@](C)(O)CC3)C2)n1` [Example 1.060] the figure was 5 to 100 nM; with `Cc1cccc(C(C)(C)NC(=O)CC2(NC(=O)c3cc(-c4ccc(F)cc4F)on3)CN(C3CCCCC3)C2)n1` [Example 1.293], under 5 nM; with `COc1ccccc1C(C)(C)NC(=O)CC1(NC(=O)c2cc(-c3ccc(F)cc3F)on2)CN(C2CCC(C)(O)CC2)C1` (stereo not shown) [Example 1.241], under 5 nM.
With `C[C@]1(O)CC[C@@H](N2CC(CC(=O)NCc3ccccn3)(NC(=O)c3cc(-c4ccc(F)cc4F)on3)C2)CC1` [Example 1.098] the figure was 1000 to 20000 nM; with `CC(C)(NC(=O)CC1(NC(=O)c2cc(-c3ccc(F)cc3F)on2)CN([C@H]2CC[C@](C)(O)CC2)C1)c1ccnc(C(F)(F)F)c1` [Example 1.166], 5 to 100 nM.
In turn, `Cc1cc(C)nc(C(C)(C)NC(=O)CC2(NC(=O)c3cc(-c4ccc(F)cc4F)on3)CN(C3CCOCC3(C)C)C2)n1` (stereo not shown) [Example 1.351] yielded an IC50 of 100 to 1000 nM.
With `COc1cc(C)cc(C(C)(C)NC(=O)CC2(NC(=O)c3cc(-c4ccc(F)cc4F)on3)CN([C@H]3CC[C@@](C)(O)CC3)C2)c1` [Example 1.118] the figure was 5 to 100 nM; with `CC(C)(NC(=O)CC1(NC(=O)c2cc(-c3ccc(F)cc3F)on2)CN(CCC(F)(F)F)C1)c1ccccn1` [Example 1.019], 100 to 1000 nM; with `CC(C)CN1CC(CC(=O)NC(C)(C)c2cccc(Cl)c2)(NC(=O)c2cc(-c3ccc(F)cc3F)on2)C1` [Example 1.120], 5 to 100 nM.
Consider `CC(C)(NC(=O)CC1(NC(=O)c2cnn(-c3ccc(F)cc3F)c2)CN([C@H]2CC[C@](C)(O)CC2)C1)c1cccc(Cl)c1` [Example 1.049], for which the concentration for half-maximal inhibition (IC50) was 1000 to 20000 nM.
On to `Cc1cc(C#N)cc(C(C)(C)NC(=O)CC2(NC(=O)c3nnc(-c4ccc(F)cc4F)s3)CN([C@H]3CC[C@](C)(O)CC3)C2)n1` [Example 1.337], for which the IC50 is under 5 nM.
With `Cc1cc(C(F)(F)F)cc(C(C)(C)NC(=O)CC2(NC(=O)c3cc(-c4ccc(F)cc4F)on3)CN([C@H]3CC[C@](C)(O)CC3)C2)n1` [Example 1.343] the figure was 5 to 100 nM; with `Cc1ccnc(C(C)(C)NC(=O)CC2(NC(=O)c3cc(-c4ccc(F)cc4F)on3)CN([C@H]3CC[C@@](C)(O)CC3)C2)c1` [Example 1.163], under 5 nM.
With `CC(C)(NC(=O)CC1(NC(=O)c2cnc(-c3ccc(F)cc3F)s2)CN([C@H]2CC[C@](C)(O)CC2)C1)c1cccc(Cl)c1` [Example 1.069] the figure was 5 to 100 nM; with `CC(C)(NC(=O)CC1(NC(=O)c2cc(-c3ccc(F)cc3F)on2)CN(C2CC3(CC3)C2)C1)c1ccccn1` [Example 1.015], 5 to 100 nM; with `Cc1cc(C(C)(C)NC(=O)CC2(NC(=O)c3cc(-c4ccc(F)cc4F)on3)CN(CC(C)(C)O)C2)ccn1` [Example 1.175], 5 to 100 nM.
The compound `COc1cccc(C(C)(C)NC(=O)CC2(NC(=O)c3cc(-c4ccc(F)cc4F)on3)CN([C@H]3CC[C@@](C)(O)CC3)C2)c1` [Example 1.238] had a half-maximal inhibitory concentration (IC50) of 5 to 100 nM.
In turn, `COc1cncc(C(C)(C)NC(=O)CC2(NC(=O)c3cc(-c4ccc(F)cc4F)on3)CN([C@H]3CC[C@](C)(O)CC3)C2)c1` [Example 1.142] had a half-maximal inhibitory concentration (IC50) of 5 to 100 nM.
With `COc1cc(C)cc(C(C)(C)NC(=O)CC2(NC(=O)c3nnc(-c4ccc(F)cc4F)s3)CN([C@H]3CC[C@](C)(O)CC3)C2)n1` [Example 1.346] the figure was 5 to 100 nM; with `CCC(C)CN1CC(CC(=O)NC(C)(C)c2ccccn2)(NC(=O)c2cc(-c3ccc(F)cc3F)on2)C1` (stereo not shown) [Example 1.010], under 5 nM.
With `CC(C)(NC(=O)CC1(NC(=O)c2cc(-c3ccc(F)cc3F)on2)CN(C2CCCCC2)C1)c1cccc(F)n1` [Example 1.297] the figure was under 5 nM; with `Cc1ccc(F)c(C(C)(C)NC(=O)CC2(NC(=O)c3cc(-c4ccc(F)cc4F)on3)CN([C@H]3CC[C@](C)(O)CC3)C2)c1` [Example 1.185], under 5 nM.
With `CC(C)(NC(=O)CC1(NC(=O)c2cc(-c3ccc(F)cc3F)on2)CN(C2CCCCC2)C1)c1ccccc1F` [Example 1.302] the figure was under 5 nM; with `COC1CCC(N2CC(CC(=O)NC(C)(C)c3ccccn3)(NC(=O)c3cc(-c4ccc(F)cc4F)on3)C2)CC1` (stereo not shown) [Example 1.299], 5 to 100 nM; with `CC(C)(NC(=O)CC1(NC(=O)c2cc(-c3ccc(F)cc3F)on2)CN(C2CCOCC2)C1)c1ccccn1` [Example 1.317], 5 to 100 nM.
For the compound `Cc1cc(C)nc(C(C)(C)NC(=O)CC2(NC(=O)c3cc(-c4ccc(F)cc4F)on3)CN(CC3(C)CCC3)C2)n1` [Example 1.001], the IC50 was under 5 nM.
With `CC(C)(NC(=O)CC1(NC(=O)c2cc(-c3ccc(F)cc3F)on2)CN(C2CC3CC3C2)C1)c1ccccn1` (stereo not shown) [Example 1.014] the figure was 5 to 100 nM; with `CC(C)(NC(=O)CC1(NC(=O)c2cc(-c3ccc(F)cc3F)on2)CN([C@H]2CC[C@](C)(C(=O)O)CC2)C1)c1ccccn1` [Example 1.108], 100 to 1000 nM.
With `CC(C)(NC(=O)CC1(NC(=O)c2cnc(-c3ccc(F)cc3F)s2)CN([C@H]2CC[C@@](C)(O)CC2)C1)c1cccc(Cl)c1` [Example 1.068] the figure was 5 to 100 nM; with `CC(C)(NC(=O)CC1(NC(=O)c2cn(-c3ccc(F)cc3F)nn2)CN(C2CCCCC2)C1)c1cccc(Cl)c1` [Example 1.076], 5 to 100 nM; with `CC(C)(O)CN1CC(CC(=O)NC(C)(C)c2ncccn2)(NC(=O)c2cc(-c3ccc(F)cc3F)on2)C1` [Example 1.231], 100 to 1000 nM.
With `COc1ccc(C(C)(C)NC(=O)CC2(NC(=O)c3cc(-c4ccc(F)cc4F)on3)CN([C@H]3CC[C@](C)(O)CC3)C2)c(F)c1` [Example 1.213] the figure was 100 to 1000 nM; with `CC(C)(NC(=O)CC1(NC(=O)c2cc(-c3ccc(F)cc3F)on2)CN(CC2CCOC2)C1)c1ccccn1` (stereo not shown) [Example 1.223], 100 to 1000 nM; with `CC(C)(NC(=O)CC1(NC(=O)c2cc(-c3ccc(F)cc3F)on2)CN([C@H]2CC[C@@](C)(O)CC2)C1)c1ccccc1F` [Example 1.227], under 5 nM.
The compound `COc1cccc(C(C)(C)NC(=O)CC2(NC(=O)c3cc(-c4ccc(F)cc4F)on3)CN(CC3CC3)C2)c1` [Example 1.117] returned an IC50 of 100 to 1000 nM.
With `C[C@H](NC(=O)CC1(NC(=O)c2cc(-c3ccc(F)cc3F)on2)CN(CC2CC2)C1)c1ccccn1` [Example 1.324] the figure was 1000 to 20000 nM; with `CC(C)N1CC(CC(=O)NC2(c3ncccn3)CC2)(NC(=O)c2cc(-c3ccc(F)cc3F)on2)C1` [Example 1.333], 100 to 1000 nM; with `CC(C)(NC(=O)CC1(NC(=O)c2cc(-c3ccc(F)cc3F)on2)CN(C2CCCCC2)C1)c1ccccc1` [Example 1.318], under 5 nM.
With `CC1(C)CC(N2CC(CC(=O)NC(C)(C)c3ccccn3)(NC(=O)c3cc(-c4ccc(F)cc4F)on3)C2)CCO1` (stereo not shown) [Example 1.013] the figure was 5 to 100 nM; with `Cc1cncc(C(C)(C)NC(=O)CC2(NC(=O)c3cc(-c4ccc(F)cc4F)on3)CN([C@H]3CC[C@@](C)(O)CC3)C2)c1` [Example 1.139], 5 to 100 nM.
With `Cc1c(C(=O)NC2(CC(=O)NC(C)(C)c3cccc(Cl)c3)CN(C3CCCCC3)C2)noc1-c1ccc(F)cc1F` [Example 1.340] the figure was 1000 to 20000 nM; with `Cc1cc(C(F)(F)F)cc(C(C)(C)NC(=O)CC2(NC(=O)c3nnc(-c4ccc(F)cc4F)s3)CN([C@H]3CC[C@](C)(O)CC3)C2)n1` [Example 1.349], 5 to 100 nM; with `CC(C)(NC(=O)CC1(NC(=O)c2cc(-c3ccc(F)cc3F)on2)CN([C@H]2CC[C@@](C)(O)CC2)C1)c1ccccn1` [Example 1.192], under 5 nM.
`O=C(CC1(NC(=O)c2cc(-c3ccc(F)cc3F)on2)CN(C2CCCCC2)C1)NC1(c2ncccn2)CC1` [Example 1.332] gave an IC50 of 5 to 100 nM.
With `Cn1ccc2c(C(C)(C)NC(=O)CC3(NC(=O)c4cc(-c5ccc(F)cc5F)on4)CN([C@H]4CC[C@@](C)(O)CC4)C3)cccc21` [Example 1.125] the figure was 5 to 100 nM; with `CC(C)(NC(=O)CC1(NC(=O)c2ccn(-c3ccc(F)cc3F)n2)CN([C@H]2CC[C@](C)(O)CC2)C1)c1cccc(Cl)c1` [Example 1.056], 1000 to 20000 nM.
